In brackets after ≈: the same amount, converted by molar mass.
Tested on: Mycobacterium tuberculosis
Assay: Antitubercular activity against multi-drug resistant Mycobacterium tuberculosis 16833 assessed as reduction in bacterial growth incubated for 7 days by Alamar blue assay
Assay type: functional
Details: Mycobacterium tuberculosis, 16833, 168 h; time 7 day

Q: How did the MIC turn out when `COc1ccc(-c2nnc(CNC(=O)c3ccc([N+](=O)[O-])o3)o2)cc1` was run?
A: 3.58 mg/L (≈ 10.4 µM)

Q: How did the MIC turn out when `NNC(=O)c1ccncc1` [ISONIAZID] was run?
A: > 32 mg/L

Q: Which MIC does the source give for `O=C(Nc1nnc(-c2ccc(Br)cc2)o1)c1ccc([N+](=O)[O-])o1` here?
A: 1.44 mg/L (≈ 3.8 µM)

Q: With `O=C(NCc1nnc(-c2ccc(C(F)(F)F)cc2)o1)c1ccc([N+](=O)[O-])o1` as the compound, how does the MIC read?
A: 1.93 mg/L (≈ 5.04 µM)

Q: `O=C(NCc1nnc(-c2ccc(OC(F)(F)F)cc2)o1)c1ccc([N+](=O)[O-])o1` was tested. Which MIC did it give?
A: 1.96 mg/L (≈ 4.91 µM)

Q: Which MIC does the source give for `CC(C)(C)c1ccc(-c2nnc(-c3ccc([N+](=O)[O-])o3)o2)cc1` here?
A: > 32 mg/L

Q: With `CO[C@H]1/C=C/O[C@@]2(C)Oc3c(C)c(O)c4c(O)c(c(/C=N/N5CCN(C)CC5)c(O)c4c3C2=O)NC(=O)/C(C)=C\C=C\[C@H](C)[C@H](O)[C@@H](C)[C@@H](O)[C@@H](C)[C@H](OC(C)=O)[C@@H]1C` [RIFAMPIN] as the compound, how does the MIC read?
A: > 32 mg/L

Q: Which MIC does the source give for `CC(C)(C)c1ccc(-c2nnc(CNC(=O)c3ccc([N+](=O)[O-])o3)o2)cc1` here?
A: 1.85 mg/L (≈ 5 µM)

Reference: ChEMBL document CHEMBL5143540, “Design, synthesis and biological evaluation of nitrofuran-1,3,4-oxadiazole hybrids as new antitubercular agents” (Bioorg Med Chem, 2022)
